Consider 24 molecules from ChEMBL document CHEMBL1201862, “PubChem BioAssay data set” (2004).

Assay [1] is described as follows: HEK-293T viability loss after treatment – luminescence, T-cell screen hits, cytotoxicity control for TCR NF-kB inhibitor project, dose response (AID 489026).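 Further: cells exposed to compound about 14 hours before the viability readout.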 Format: functional, cell-based.
Assay [2] in a line: Luminescence Cell-Based Dose Retest to Confirm Inhibitors of Cancer Stem Cells. [Related pubchem assays (depositor defined):AID2717, AID2721]. The class given is functional. The note with it: Homo sapiens.
Assay [3] addresses T1, RNA-binding protein pos-1 (Caenorhabditis elegans, UniProt G5EF15).
T1 sequence (G5EF15 whole entry): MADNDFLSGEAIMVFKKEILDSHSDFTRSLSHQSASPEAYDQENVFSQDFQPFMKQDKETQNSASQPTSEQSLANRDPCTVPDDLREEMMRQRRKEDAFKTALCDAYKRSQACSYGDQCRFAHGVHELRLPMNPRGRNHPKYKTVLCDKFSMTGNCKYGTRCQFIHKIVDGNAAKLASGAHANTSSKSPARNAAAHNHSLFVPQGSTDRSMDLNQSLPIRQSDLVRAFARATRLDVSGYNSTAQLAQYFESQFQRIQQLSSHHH
The assay can be described thus: disruptors of C. elegans POS-1 RNA interaction – biochemical, fluorescence polarization, dose response (AID 1964).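 Further: purified POS-1 fused to maltose binding protein made in E. coli; potency of compounds blocking POS-1 binding to fluorescent RNA.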 For orientation: Fluorescence polarisation rises when a labelled molecule tumbles more slowly, as on binding a larger partner.

The target in assay [4] is T2, Zinc finger protein mex-5 (Caenorhabditis elegans, UniProt Q9XUB2).
T2 sequence (Q9XUB2 whole entry): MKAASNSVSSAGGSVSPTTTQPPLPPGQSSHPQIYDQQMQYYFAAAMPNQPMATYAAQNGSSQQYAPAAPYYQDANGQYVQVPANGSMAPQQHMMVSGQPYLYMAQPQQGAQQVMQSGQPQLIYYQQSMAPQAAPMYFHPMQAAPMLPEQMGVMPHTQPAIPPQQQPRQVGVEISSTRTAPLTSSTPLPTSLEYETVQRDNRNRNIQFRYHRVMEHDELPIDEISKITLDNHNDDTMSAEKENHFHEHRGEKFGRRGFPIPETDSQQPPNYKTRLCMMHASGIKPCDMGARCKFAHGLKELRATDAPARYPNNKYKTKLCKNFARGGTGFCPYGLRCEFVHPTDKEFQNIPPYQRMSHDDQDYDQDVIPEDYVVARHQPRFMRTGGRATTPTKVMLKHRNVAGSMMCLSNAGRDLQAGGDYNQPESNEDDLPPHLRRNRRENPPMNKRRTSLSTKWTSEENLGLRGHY
The assay can be described thus: potency of MEX-5 RNA-binding blockers – biochemical, C. elegans, fluorescence polarization, dose response (AID 1960).

Assay [5] concerns the target Heat shock protein HSP 90-alpha (Homo sapiens, UniProt P07900). The class given is functional, organism-based.
The target of assay [6] is T3, High affinity choline transporter 1 (Homo sapiens, UniProt Q9GZV3).
T3 sequence (Q9GZV3 whole entry): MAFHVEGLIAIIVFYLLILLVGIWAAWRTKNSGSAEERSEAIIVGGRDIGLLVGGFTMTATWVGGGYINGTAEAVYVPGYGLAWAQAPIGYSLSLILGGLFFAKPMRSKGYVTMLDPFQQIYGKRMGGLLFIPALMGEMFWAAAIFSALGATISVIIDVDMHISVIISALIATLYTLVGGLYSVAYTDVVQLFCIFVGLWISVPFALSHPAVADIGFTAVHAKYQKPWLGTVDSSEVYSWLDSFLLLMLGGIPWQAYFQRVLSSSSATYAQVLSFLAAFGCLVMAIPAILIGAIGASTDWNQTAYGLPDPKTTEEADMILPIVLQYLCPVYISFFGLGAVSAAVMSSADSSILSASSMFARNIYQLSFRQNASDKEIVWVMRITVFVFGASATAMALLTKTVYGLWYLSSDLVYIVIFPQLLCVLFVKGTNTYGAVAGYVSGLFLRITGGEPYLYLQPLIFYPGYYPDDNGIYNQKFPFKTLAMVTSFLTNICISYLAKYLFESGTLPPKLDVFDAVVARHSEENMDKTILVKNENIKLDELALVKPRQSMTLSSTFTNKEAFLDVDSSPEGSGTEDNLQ
The assay can be described thus: human choline transporter blockers, potency – cell-based, 5-point CRC, membrane potential dye, dose response (AID 504840). Format: functional.

Assay [7] is described as follows: viability of uninfected HEp-2 cells – cell-based, HTS, cytotoxicity control for RSV inhibitor project, dose response (AID 2410). The class given is functional. The conditions noted are these: human respiratory syncytial virus.
Assay [8] can be described thus: microbe, parasite or virus in culture. The class given is functional. The conditions noted are these: Mycobacterium tuberculosis.
The nature of another assay: cells. Format: functional.
A short description of assay [9]: fluconazole-exposed Candida albicans growth modulators – fluorescence, retest, confirmation (AID 2467). Format: functional, cell-based.
Assay [10] can be described thus: NIH-3T3 fibroblast cytotoxicity, dose response, cytotoxicity control, cell-based, fluorescence, Alamar Blue, secondary assay (AID 2327).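 Further: NIH-3T3 mouse fibroblasts cultured with fluconazole at 8 µg/mL.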 Format: functional. On the technique in general: Alamar Blue is a resazurin reagent that responds to reducing activity.
Assay [11] is described as follows: THP-1 cell cytotoxicity, dose response, cytotoxicity control for non-replicating M. tuberculosis project (AID 489025). Format: functional.
The nature of assay [12]: Vero E6 cell cytotoxicity, dose response, cytotoxicity control for non-replicating M. tuberculosis project, secondary assay (AID 492998). The note with it: Vero C1008. Format: functional, VeroE6.
The target of assay [13] is Glyceraldehyde-3-phosphate dehydrogenase (Homo sapiens, UniProt P04406).
A further assay concerns H4. The assay can be described thus: Luminescence Cell-Based Dose Response HTS to Identify Activators of 5'UTR Stem-Loop Driven Prion Protein mRNA Translation in H4 Neuroglioblastoma Cells. [Related pubchem assays: 1829 (Project Summary), 1814 (Primary HTS)]. The conditions noted are these: Homo sapiens. The class given is functional.
Assay [14] is described as follows: Luminescence Cell-Based Dose Response HTS to Identify Activators of Luciferase Translation or Activity in H4 […] Cells. [Related pubchem assays: 1829 (Project Summary), 1814 (Primary HTS)]. Format: functional.
The next assay concerns SN12K1. The assay can be described thus: cells. Format: functional. The conditions noted are these: Homo sapiens.
A further assay has as its system P388/ADR. The assay can be described thus: cells. Format: functional. The note with it: Mus musculus.
A further assay relates to P388. The assay can be described thus: cells. The note with it: Mus musculus. Format: functional.
A further assay deals with Large T antigen (Simian virus 40, UniProt P03070). Format: functional, Betapolyomavirus macacae.

Each structure is given as a SMILES string. The source made the active and inactive calls.

Large T antigen, sequence (P03070 whole entry): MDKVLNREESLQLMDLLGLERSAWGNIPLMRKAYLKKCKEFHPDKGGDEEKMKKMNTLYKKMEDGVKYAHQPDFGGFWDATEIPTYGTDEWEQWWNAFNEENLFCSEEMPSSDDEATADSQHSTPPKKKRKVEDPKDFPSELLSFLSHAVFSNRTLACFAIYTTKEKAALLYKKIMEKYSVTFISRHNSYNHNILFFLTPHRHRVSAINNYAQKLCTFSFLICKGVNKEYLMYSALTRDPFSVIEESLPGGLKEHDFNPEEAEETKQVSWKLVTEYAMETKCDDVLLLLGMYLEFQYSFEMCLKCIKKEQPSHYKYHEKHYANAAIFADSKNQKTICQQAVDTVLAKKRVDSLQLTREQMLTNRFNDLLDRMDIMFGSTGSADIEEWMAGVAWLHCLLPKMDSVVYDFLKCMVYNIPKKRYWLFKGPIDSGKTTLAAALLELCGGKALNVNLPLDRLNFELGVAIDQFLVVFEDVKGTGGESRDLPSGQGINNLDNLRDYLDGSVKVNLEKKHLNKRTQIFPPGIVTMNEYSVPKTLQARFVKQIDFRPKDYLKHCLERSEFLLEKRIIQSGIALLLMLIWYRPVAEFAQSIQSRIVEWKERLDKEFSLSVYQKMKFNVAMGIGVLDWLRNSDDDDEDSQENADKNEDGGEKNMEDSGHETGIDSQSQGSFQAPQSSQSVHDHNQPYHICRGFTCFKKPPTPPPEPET
Glyceraldehyde-3-phosphate dehydrogenase, sequence (P04406 whole entry): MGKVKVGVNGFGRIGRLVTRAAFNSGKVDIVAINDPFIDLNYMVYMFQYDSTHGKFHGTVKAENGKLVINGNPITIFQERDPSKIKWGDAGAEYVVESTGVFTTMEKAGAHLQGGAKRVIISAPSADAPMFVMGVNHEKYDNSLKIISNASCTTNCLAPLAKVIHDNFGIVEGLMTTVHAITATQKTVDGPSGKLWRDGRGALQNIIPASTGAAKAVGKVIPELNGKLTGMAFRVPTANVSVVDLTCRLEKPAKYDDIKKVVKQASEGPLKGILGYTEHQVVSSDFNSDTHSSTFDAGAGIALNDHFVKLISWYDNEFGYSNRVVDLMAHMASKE

What is called IC50 is the concentration that inhibits the measured activity by half. By AC50 is commonly meant the midpoint of the concentration-response curve, whichever way the signal moves. In the case of `COc1ccccc1C1=NOC(COc2ccc3c(C)cc(=O)oc3c2)C1` (stereo unspecified), the IC50 in assay [1] was > 80 µM (inactive). Besides, in [2], the AC50 was 0.224 µM (active).

One may read the EC50 as the midpoint of the concentration-response curve. As for `O=[N+]([O-])c1ccc(C2=Nc3cc(Cl)ccc3OC2)cc1`, the results for the EC50 in assay [3] and in assay [4] were 90.7 µM (active) and > 300 µM (inconclusive), respectively.

For `CCOc1cc(C2C(C#N)=C(N)OC3=C2C(=O)CC(C)(C)C3)cc([N+](=O)[O-])c1O` (stereo unspecified), the half-maximal effective concentration (EC50) in assay [3] and in assay [4] was > 300 µM (not active) each time.

Regarding `COc1ccc(C2=CC3=C(Br)C(=O)C(C)(OC(=O)C4CCCC4)C(=O)C3=CO2)cc1` (stereo unspecified), the figures for the EC50 in assay [3] and in assay [4] were 43.7 µM (active) and > 300 µM (not active), respectively. Also, the half-maximal activity concentration (AC50) in [5] was 1.68 µM (active).

For the molecule `COc1ccc(OC)c(C2CC(=O)c3c([nH]c(C(=O)OC(C)C)c3C)C2)c1` (stereo unspecified), the IC50 in assay [1] is > 80 µM (inactive).

On to `CCOc1ccccc1NC(=O)CN(c1ccc(OC)cc1)S(=O)(=O)c1c(C)noc1C`, for which the IC50 in [1] is > 80 µM (inactive).

As to `COc1ccc(OC)c(/C=C2\SC(=S)N(NS(=O)(=O)c3ccccc3)C2=O)c1`, the half-inhibitory concentration (IC50) in [6] is 8.71 µM (active).

`O=C(Nc1ccccc1Br)C1CCCN1S(=O)(=O)c1cccc2nsnc12` (stereo unspecified): the IC50 in [6] was 13.8 µM (active). Further, the CC50 in assay [7] is 33.1 µM (active).

On to `Cc1noc2ncnc(Sc3ccc(Cl)cc3)c12`, for which the CC50 in assay [8] was 27.1 µM (active); in assay [11] it was 21.3 µM (active); in assay [12] it was > 20 µM (active). Besides, in the assay “cells”, the IC50 was 8.82 µM (active). Also, the figures for the concentration giving a half-maximal response (EC50) in assay [9] and in [10] were > 38 µM (not active) and > 160 µM (inconclusive), respectively.

On to `O=C1C(Cl)=C(N2CCN(Cc3ccccc3)CC2)C(=O)N1c1cccc(C(F)(F)F)c1`, for which the 50% inhibitory concentration (IC50) in assay [13] is > 50 µM (inconclusive).

As to `Cc1cc(C)c2nc(-n3nc(C)cc3N)cc(C)c2c1`, the EC50 was 1.71 µM (active) in the assay on H4 and 32.5 µM (active) in assay [14].

As for `O=C(NC1CCCCC1)C(c1ccc2ncccc2c1)N(Cc1ccc2c(c1)OCO2)C(=O)c1ccc2c(c1)OCCO2` (stereo unspecified), in assay [6], the half-maximal inhibitory concentration (IC50) is 15.1 µM (active).

With `CCN1CCN(Cc2ccccc2NC(=O)Nc2ccc(C)cc2)CC1`, the concentration giving a half-maximal response (EC50) was 7.09 µM (active) in the assay on H4 and > 120 µM (not active) in assay [14].

Turning to `O=C(Nc1ccccc1)Oc1cccc2cccnc12`, the half-maximal activity concentration (AC50) in assay [5] was 3.44 µM (active).

`N=C(Cc1ccc(Cl)cc1Cl)NOC(=O)c1ccc(Br)o1`: the concentration at half-maximal activity (AC50) in [5] is 3.11 µM (active).

For `CCCCCN1C=CC(=C2C(=O)c3ccccc3C2=O)C=C1`, the IC50 in assay [1] was > 80 µM (inactive).

Broadly, the GI50 is the concentration giving 50% growth inhibition. In the case of `COc1cc([C@@H]2c3cc4c(cc3[C@@H](OC3OC5COC(C)OC5C(O)C3O)[C@H]3COC(=O)[C@H]23)OCO4)cc(OC)c1O` (stereo partly specified), the results for the GI50 in the assay on SN12K1, in the assay on P388/ADR and in the assay on P388 were 1.17 µM (inactive), 58.6 µM (inactive) and 0.275 µM (active), respectively.

Consider `CN(CCO)/N=N/c1n[nH]cc1C(N)=O`, for which the GI50 with SN12K1, with P388/ADR and in the assay with P388 was > 100 µM (inactive) throughout.

On to `O=[N+]([O-])c1cccc2c1[nH]c1c(-c3ccccc3)nccc12`, for which the GI50 was 1.72 µM (inactive) in the assay with SN12K1, 2.52 µM (inactive) with P388/ADR and 2.52 µM (inactive) with P388.

With `CN(C)CCNC(=O)c1cccc2[nH]c(-c3ccccn3)nc12`, the GI50 in the assay with SN12K1 was 25.2 µM (inactive); in the assay with P388/ADR, 21.3 µM (inactive); in the assay on P388, 14.5 µM (inactive).

Regarding `O=C(/C=C/c1ccccc1Cl)c1ccc(O)cc1`, the concentration at half-maximal activity (AC50) in assay [5] was 4.46 µM (active).

For the molecule `COC(=O)N/N=C/c1ccc([N+](=O)[O-])s1`, in “cells”, the IC50 was 30.5 µM (active). Moreover, the CC50 in [12] was > 20 µM (active).

With `COc1cc(/C=N/NC(=O)CCn2nc(C)cc2C)ccc1O`, on Large T antigen, the IC50 was 15.6 µM (active).

With `O=C(N/N=C/c1c[nH]c2ccccc12)c1ccc(O)c(O)c1`, the concentration for half-maximal inhibition (IC50) at Large T antigen was 9.13 µM (active).
